Results as given in patent US5733893A, “Method of identifying molecules that regulate FGF activity” (Washington University, priority 1995, dated 1998).
“Also recorded” adds a separate entry of the source.

What was measured:
[1] = system: FGFR1-expressing BaF3 cells; assay: bFGF mitogenic activity, 3H-thymidine incorporation into FGFR1-expressing BaF3 cells; type: cell-based; settings: for mitogenic activity with bFGF (in words): FGFR1-expressing BaF3 cells; for Mitogenic activity: relative concentration (wt/vol.) required to incorporate 2 × 10^4 cpm 3H-thymidine into F32 cell DNA: relative to heparin (1.0), ± standard deviation; for mitogenic activity with bFGF (in words) / Mitogenic activity: relative concentration (wt/vol.) required to incorporate 2 × 10^4 cpm 3H-thymidine into F32 cell DNA: bFGF; for fold more active than SOS: FGFR1-expressing BaF3 cell growth with bFGF
Excerpt: This cell line was used to assay synthetic heparin/HS molecules as potential activators or inhibitors of heparin/HS-dependent mitogenesis (3).

[2] = target: T1, bFGF (Homo sapiens, UniProt P09038); assay: competition with 125I-heparin binding to bFGF; settings: for binding to bFGF/FGF (in words): competition with 125I-heparin; for IC50: 4 nM FGF, read-out: IC50 (50% competition for 125I-heparin binding to bFGF) (converted)
T1 construct: purchased Scios Nova
Protocol: FIG. 2A: Binding of oligosaccharides to bFGF as determined by competition with ^125 I-heparin (30).
(§1) The ability of these small oligosaccharides to compete with the binding on ^125 I-heparin to FGF was also assayed. Heparin iodination was carried out by previously published procedure (30). Heparin binding to FGF was determined by incubating 4 nM FGF with ^125 I-heparin and competitor polysaccharide. Complexes were immunoprecipitated with 1:250 dilutions of monoclonal antibody DG2 (DuPont/Merck) (for bFGF) or a polyclonal antibody (for aFGF), and protein A SEPHAROSE (Sigma Chemical Co.). Washing and quantitation was carried out by procedures previously published for soluble receptor-binding assays (3).
(§2) 12. Heparin iodination was as in (30). Heparin binding to FGF was determined by incubating 4 nM FGF with ^125 I-heparin and competitor polysaccharide. Complexes were immunopredpitated with 1:250 dilutions of monoclonal antibody DG2 (for bFGF) or a polydonal antibody (for aFGF), and protein A sepharose (Sigma). Washing and quantitation was as previously described for soluble receptor binding assays (3).

[3] = system: bFGF-FRAP binding; assay: binding of 125I-bFGF to soluble receptor FRAP in presence of oligosaccharide; settings: oligosaccharides 2 μg/ml or increasing concentrations
Protocol: FIG. 2B: Binding of ^125 I-bFGF to FRAP (3), a soluble receptor, in the presence of the indicated oligosaccharide: *, no heparin added; heparin, 50 ng/ml; the remaining oligosaccharides (Di-1 to SOS) were added at a concentration of 2 μg/ml. FGFs were labeled by the Chloramine T method as previously described (31).
(§3) FIG. 2C: Acidic FGF binding to FRAP; FIG. 2D:, basic FGF binding to FRAP. ^125 I-FGFs were incubated with FRAP in the presence of increasing concentrations of heparin or Tri-3; Binding assays were performed as previously described (3).
(§4) The FGFR1-expressing BaF3 cell line was used to assay synthetic heparin/HS molecules as potential activators or inhibitors of heparin/HS-dependent mitogenesis by an assay procedure published previously (3). Such cell lines, which express FGRF1, require heparin/HS and FGF for growth (3). […]
Binding of bFGF to a soluble FGFR-alkaline phosphatase fusion protein (FRAP) or to a cell-surface FGFR is enhanced by heparin/HS or by heparin-derived oligosaccharides (8 to 12 sugar residues) (3,4). The ability of heparin/HS-derived di- and tri-saccharides to enhance FGF-FRAP binding in vitro was measured (3).

[4] = target: T1, bFGF; assay: bFGF dimerization by crosslinking and electrophoresis; type: biochemical; settings: for induction of FGF dimers (in words): crosslinking
Protocol: 670 nM bFGF and 3×10^5 cpm ^125 I-bFGF were incubated with the indicated concentration of (μg/ml) Tri-3 or HS-16. Crosslinking and electrophoresis were performed as previously described (3). Dimer (45 kD) band intensities were quantified by scanning densitometry and plotted above each lane. Molecular weight markers (kD) are shown at the right.

[5] = system: aFGF; assay: competition with 125I-heparin binding to aFGF
Protocol: as §1, §2

[6] = system: FGFR1-expressing BaF3 cells; assay: aFGF mitogenic activity, 3H-thymidine incorporation into FGFR1-expressing BaF3 cells; type: cell-based
Excerpt: Activation of bFGF mitogenic activity as measured by ^3 H-thymidine incorporation into FGFR1-expressing BaF3 cells treated with 150 pM bFGF and increasing concentrations of the indicated oligosaccharides is shown. FIG. 1B.
as §4
However, their potency relative to that of heparin is less than that observed with bFGF (FIG. 1B).

[7] = system: FGF receptors; assay: dimerization of FGF receptors on BaF3-FGFR1 cells by crosslinking; type: cell-based; settings: BaF3-FGFR1 cells with FGF-2
Protocol: Binding media (DMEM/0.1% BSA) was supplemented with the indicated concentration of heparin or Tri-3.(*) 200 ng/ml unlabeled FGF-2 added to binding media; Cells were washed once with the same media used for binding, and once with PBS. Crosslinking was as described previously (27).
Crosslinked receptors were electrophoresed on a 5% SDS polyacrylamide gel under reducing condition, and visualized by autoradiography. The lower band corresponds to receptor monomers crosslinked to FGF-2. The upper band corresponds to receptor dimers crosslinked to each other and to FGF-2. Molecular weights (kD) are shown at the right.
Binding media (DMEM/0.1% BSA) was supplemented with the indicated concentration of heparin or Tri-3.(*) 200 ng/ml unlabeled FGF-2 added to binding media; Cells were washed once with the same media used for binding, and once with PBS. Crosslinking was as described previously
Crosslinked receptors were electrophoresed on a 5% SDS polyacrylamide gel under reducing condition, and visualized by autoradiography. The lower band corresponds to receptor monomers crosslinked to FGF-2. The upper band corresponds to receptor dimers crosslinked to each other and to FGF-2.

[8] = system: aFGF binding to FRAP; assay: binding of 125I-aFGF to soluble receptor FRAP in presence of oligosaccharide; settings: increasing concentrations
Protocol: as §3, §4

T1 sequence (P09038 134-288): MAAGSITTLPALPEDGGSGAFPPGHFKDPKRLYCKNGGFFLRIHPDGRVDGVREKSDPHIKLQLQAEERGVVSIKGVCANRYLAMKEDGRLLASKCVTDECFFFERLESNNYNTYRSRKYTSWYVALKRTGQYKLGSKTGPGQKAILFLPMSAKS

Row | Compound | mitogenic activity with bFGF (in words) [1] | Mitogenic activity: relative concentration (wt/vol.) required to incorporate 2 × 10^4 cpm 3H-thymidine into F32 cell DNA [1] | binding to bFGF/FGF (in words) [2] | fold more active than SOS [1] [fold] | mitogenic activity with bFGF (in words) ([1]; listed as D-3) | enhancement of bFGF-FRAP binding (in words) [3] | induction of FGF dimers (in words) [4] | binding to aFGF (in words) [5] | mitogenic activity with bFGF (in words) ([1]; listed as D-4) | IC50 [2] [µM] | proliferation of FGFR1-expressing BaF3 cells in the presence of aFGF (in words) [6] | dimerization of FGF receptors (in words) [7] | aFGF binding to FRAP (in words) [8] | optimal concentration for dimerization activity ([4]; 670 nM bFGF) [µg/mL]
1 | CO[C@H]1O[C@H](CO)[C@@H](O[C@@H]2O[C@@H](C(=O)O)[C@@H](O)[C@H](O)[C@H]2O)[C@H](O)[C@H]1NC(C)=O [Di-1, α-L-IdoA-(1→4)-α-D-GlcNAc-1→OMe] | no activity | – | – | – | – | – | – | – | – | – | – | – | – | –
2 | CO[C@H]1O[C@H](CO)[C@@H](O[C@@H]2O[C@@H](C(=O)O)[C@@H](O)[C@H](O)[C@H]2O)[C@H](O)[C@H]1NS(=O)(=O)O [Di-2, α-L-IdoA-(1→4)-α-D-GlcNSO3 -1→OMe] | intermediate mitogenic activity; also recorded: higher than expected mitogenic activity | 69.5 ± 9.6 | affinity less than that of SOS | – | – | – | – | – | – | – | – | – | – | –
3 | CO[C@H]1O[C@H](CO)[C@@H](O[C@@H]2O[C@H](C(=O)O)[C@@H](O)[C@H](O)[C@H]2O)[C@H](O)[C@H]1NC(C)=O [Di-3, β-D-GlcA-(1→4)-α-D-GlcNAc-1→OMe] | intermediate mitogenic activity | 26.0 | bind | 55 | the most active of the disaccharides | enhance bFGF-FRAP binding | induce FGF dimers as well as higher order oligomers | bind | – | – | – | – | – | –
4 | CO[C@H]1O[C@H](CO)[C@@H](O[C@@H]2O[C@H](C(=O)O)[C@@H](O)[C@H](O)[C@H]2O)[C@H](O)[C@H]1NS(=O)(=O)O [Di-4, β-D-GlcA-(1→4)-α-D-GlcNSO3 -1→OMe] | intermediate mitogenic activity | 24.7 | bind | 55 | – | enhance bFGF-FRAP binding | – | bind | the most active of the disaccharides | – | – | – | – | –
5 | CO[C@@H]1O[C@H](C(=O)O)[C@@H](O[C@H]2O[C@H](CO)[C@@H](O)[C@H](O)[C@H]2NC(C)=O)[C@H](O)[C@H]1O [Di-5, D-GlcNAc-(1→4)-β-D-GlcA-1→OMe] | intermediate mitogenic activity | 463.6 | – | – | – | – | – | – | – | – | – | – | – | –
6 | O=S(=O)(O)OC[C@H]1O[C@@](COS(=O)(=O)O)(O[C@H]2O[C@H](COS(=O)(=O)O)[C@@H](OS(=O)(=O)O)[C@H](OS(=O)(=O)O)[C@H]2OS(=O)(=O)O)[C@@H](OS(=O)(=O)O)[C@@H]1OS(=O)(=O)O [SOS, sucrose octasulfate, reference compound] | minimal biological activity | 1380.8 ± 30.6 | bind | – | – | – | – | bind | – | 94.6 | – | – | – | –
7 | CO[C@@H]1O[C@H](C(=O)O)[C@@H](O[C@H]2O[C@H](CO)[C@@H](O[C@@H]3O[C@H](C(=O)O)[C@@H](O)[C@H](O)[C@H]3O)[C@H](O)[C@H]2NC(C)=O)[C@H](O)[C@H]1O [Tri-1, β-D-GlcA-(1→4)-α-D-GlcNAc-(1→4)-β-D-GlcA-1→OMe] | active at concentrations comparable to that of heparin; also recorded: higher than expected mitogenic activity | 1.2 ± 0.2 | bind and affinity higher than that of SOS | – | – | inability of Tri-1 to enhance FGF-FRAP binding | – | bind | – | 19.9 | stimulate the proliferation | – | – | –
8 | CO[C@@H]1O[C@H](C(=O)O)[C@@H](O[C@H]2O[C@H](CO)[C@@H](O[C@@H]3O[C@@H](C(=O)O)[C@@H](O)[C@H](O)[C@H]3O)[C@H](O)[C@H]2NS(=O)(=O)O)[C@H](O)[C@H]1O [Tri-2, α-L-IdoA-(1→4)-α-D-GlcNSO3 -(1→4)-β-D-GlcA-1→OMe] | intermediate mitogenic activity; also recorded: lack of activity | 470.6 ± 25.6 | affinity less than that of SOS | – | – | – | – | – | – | – | – | – | – | –
9 | CO[C@@H]1O[C@H](C(=O)O)[C@@H](O[C@H]2O[C@H](CO)[C@@H](O[C@@H]3O[C@@H](C(=O)O)[C@@H](O)[C@H](O)[C@H]3O)[C@H](O)[C@H]2NC(C)=O)[C@H](O)[C@H]1O [Tri-3, α-L-IdoA-(1→4)-α-D-GlcNAc-(1→4)-β-D-GlcA-1→OMe] | active at concentrations comparable to that of heparin; also recorded: higher than expected mitogenic activity; also recorded: the most active compound tested | 3.2 | bind and affinity higher than that of SOS | – | – | enhance bFGF-FRAP binding; also recorded: increases in a dose-dependent manner; also recorded: reproducibly exceeds that with heparin | induce FGF dimers as well as higher order oligomers | bind | – | 9.87 | stimulate the proliferation | dimerization of FGF receptors induced | increases in a dose-dependent manner | 35
